According to US20230416672A1, “Rhodococcus qingshengii bacterial strain that degrades imazethapyr and stimulates crop growth” (priority 2020, published 2023):

Assays:
[1] = Imazethapyr content in soil in laboratory experiment (Example 2, HPLC); conditions: end of experiment (47 days), original contaminated soil 6.17
Procedure: (§1) The soil in the experiment was artificially polluted with the herbicide preparation “Viaduk VK” (Active substance: imazethapyr, 100 g/L), introducing the drug with water for irrigation at a dosage, according to the instructions, to a final concentration of imazethapyr 10 mg/kg of soil. The soil was moistened to 50% of the total moisture capacity. Seeds of soft wheat (Triticum aestivum L.) varieties “Favorite” 20 pcs. were sown in 1-liter pots containing 1 kg of soil. […]
(§2) The experiment was carried out under controlled conditions: at a temperature of 24/20° C., a light regime of 14/10 h (illumination—8000 lux), day/night, respectively, maintaining soil moisture at a level of 50% of the total moisture capacity by irrigation with settled tap water, the need for which was determined by weighing vessels. […] They were dried with filter paper, the length of roots and shoots was measured, they were separated and dried to constant weight at 65° C. […] The content of imazethapyr in soil was determined as described previously (Assalin M. R., Queiroz S. C. N., Ferracini V. L., Oliveira T., Vilhena E., Mattos M. L. T. A method for determination of imazapic and imazethapyr residues in soil using an ultrasonic assisted extraction and LC-MS/MS//Bull. Environ. Contam. Toxicol.—2014.—Vol. 93.—P. 360-364) using HPLC. […]

[2] = system: soft wheat (Triticum aestivum L.) variety Favorite; test: Growth of soft wheat in soil artificially contaminated with imazethapyr (Example 2); format: in vivo; conditions: imazethapyr 10 mg/kg soil (Viaduk VK), without bacterization, 25 days
Procedure: as §1, §2

With `CCc1cnc(C2=NC(C)(C(C)C)C(=O)N2)c(C(=O)O)c1` (stereo not drawn) [imazethapyr] the Imazethapyr content ([1]; soil with wheat) was 5.90 mg/kg, the Imazethapyr content ([1]; soil without plants) was 5.87 mg/kg and the “growth of wheat plants in freshly contaminated soil” value [2] was “strong inhibition”.
